# In patent US8748462B2, “Spirocyclic GPR40 modulators” (Amgen Inc., priority 2008, dated 2014):
# Target: T1, human GPR40 (Homo sapiens, UniProt O14842)
# T1 construct: expressed in transfected cells; host or cells: CHO cells stably transfected with GPR40 and Aequorin
# Experiment: Inositol phosphate accumulation assay
# Assay type: cell-based
# Details: A9 cell line stably transfected with GPR40; 1 hour at 37° C.; read-out: IP3 EC50
# Procedure: An A9 cell line stably transfected with GPR40 (A9_GPR40) was used in IP accumulation assays. A9_GPR40 cells were plated in 96-well plates containing 20,000 cells/well in DMEM containing 10% FBS. After the cells attached to the well surface, the media was replaced with inositol free DMEM containing 10% dialyzed FBS and 1 μCi, mL ^3H-inositol and incubated for 16 hours. Compounds were diluted in HBSS/10 mM LiCl containing a desired amount of HSA and added directly to cells. Following 1 hour incubation at 37° C., the media was replaced with 100 μL of 20 mM formic acid to quench the reaction. 50 μL of the extract was then added to 100 μL of SPA beads, incubated overnight, and measured on a TopCount the following day.
# T1 sequence (O14842 whole entry): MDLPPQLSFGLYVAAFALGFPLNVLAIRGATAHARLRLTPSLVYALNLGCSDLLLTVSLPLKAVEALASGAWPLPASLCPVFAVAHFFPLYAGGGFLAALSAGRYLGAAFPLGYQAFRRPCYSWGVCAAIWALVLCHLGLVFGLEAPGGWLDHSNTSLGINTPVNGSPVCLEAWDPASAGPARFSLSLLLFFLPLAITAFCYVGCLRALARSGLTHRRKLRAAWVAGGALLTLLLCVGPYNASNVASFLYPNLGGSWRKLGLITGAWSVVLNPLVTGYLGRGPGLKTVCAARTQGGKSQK
row,SMILES,EC50
1,"COc1ccc(F)c(-c2ccc(COc3ccc4c(c3F)[C@]3(CCC4)C[C@H]3C(=O)O)cc2[C@H]2CCCC2(C)C)c1 (single isomer, unassigned) [Example 51]",< 0.01 µM
2,CCCCOc1cc(COc2ccc3c(c2)[C@]2(CC3)C[C@H]2C(=O)O)ccc1-c1cccc(OC)c1 [Example 25],0.1 to 1 µM
3,"CC(C)COc1ccc(COc2ccc3c(c2)[C@]2(CCC3)C[C@H]2C(=O)O)cc1[C@@H]1CCCC1(C)C (single isomer, unassigned) [Example 130]",0.1 to 1 µM
4,"COc1ccc(F)c(-c2ccc(COc3ccc4c(c3F)[C@]3(CC4)C[C@H]3C(=O)O)cc2[C@@H](OC)C(C)(C)C)c1 (single isomer, unassigned) [Example 31]",< 0.01 µM

# Target: T1, human GPR40
# Experiment: Cell-based aequorin assay
# Details: CHO cells stably transfected with GPR40 and aequorin; 0.01% HSA
# Procedure: Cell-based aequorin assays were employed to characterize the modulatory activity of compounds on the GPR40 signaling pathway. In an exemplary assay, CHO cells were stably transfected with both GPR40 and Aequorin (Euroscreen). Cells were detached from the tissue culture dish with 2 mL of trypsin (0.25% (w/v)). Trypsinization was halted with 28 mL of Hanks Buffered Salt Solution containing 20 mM Hepes (H/HBSS) and 0.01% fatty acid-free human serum albumin (HSA). Coelantrazine is added to 1 ug/mL, and the cells were incubated for 2 hours at room temperature. Compounds were dissolved in DMSO for preparation of 10 mM stock solutions. Compounds were diluted in H/HBSS containing 0.01% HSA. Serial dilutions of the test compounds were prepared to determine dose response.
# Aequorin luminescence measurements were made using an EG&G Berthold 96-well luminometer, and the response was measured over a 20 second interval after cells and compounds were mixed. The maximum relative light units was plotted to determine dose response. The EC50 (effective concentration to reach 50% maximal response) was determined from the dose response plot.
row,SMILES,EC50
1,"COc1ccc(F)c(-c2ccc(COc3ccc4c(c3F)[C@]3(CCC4)C[C@H]3C(=O)O)cc2[C@H]2CCCC2(C)C)c1 (single isomer, unassigned) [Example 51]",0.01 to 0.1 µM
2,CCCCOc1cc(COc2ccc3c(c2)[C@]2(CC3)C[C@H]2C(=O)O)ccc1-c1cccc(OC)c1 [Example 25],0.1 to 1 µM
3,"COc1ccc(F)c(-c2ccc(COc3ccc4c(c3)[C@@]3(CC4)C[C@@H]3C(=O)O)cc2[C@H]2CCCC2(C)C)c1 (single isomer, unassigned) [Example 10]",> 10 µM
4,"CC(C)COc1ccc(COc2ccc3c(c2)[C@]2(CCC3)C[C@H]2C(=O)O)cc1[C@@H]1CCCC1(C)C (single isomer, unassigned) [Example 130]",1 to 10 µM
5,"COc1ccc(F)c(-c2ccc(COc3ccc4c(c3F)[C@]3(CC4)C[C@H]3C(=O)O)cc2[C@@H](OC)C(C)(C)C)c1 (single isomer, unassigned) [Example 31]",0.01 to 0.1 µM
6,CO[C@@H](c1cc(COc2ccc3c(c2)[C@]2(CCC3)C[C@H]2C(=O)O)ccc1-c1cncs1)C(C)(C)C (racemic) [Example 135],1 to 10 µM
7,COc1ccc(Cl)c(-c2ccc(COc3ccc4c(c3F)[C@@]3(CC4)C[C@@H]3C(=O)O)cc2[C@@H]2CCCC2(C)C)n1 (stereo in doubt) [Example 126],1 to 10 µM
8,"COc1ccc(F)c(-c2ccc(COc3cc(F)c4c(c3F)[C@@]3(CC4)C[C@H]3C(=O)O)cc2[C@H]2CCCC2(C)C)c1 (single isomer, unassigned) [Example 36]",> 10 µM
9,"COc1ccc(F)c(-c2ccc(COc3cc(F)c4c(c3F)[C@]3(CC4)C[C@@H]3C(=O)O)cc2[C@@H](OC)C(C)(C)C)c1 (single isomer, unassigned) [Example 39]",1 to 10 µM
10,COc1ccc(F)c(-c2ccc(COc3ccc4c(c3)[C@@]3(CC4)C[C@@H]3C(=O)O)cc2C2=CCCC2(C)C)c1 [Example 2],> 10 µM
11,CO[C@@H](c1cc(COc2ccc3c(c2)[C@]2(CCC3)C[C@H]2C(=O)O)ccc1Br)C(C)(C)C (racemic) [Example 132],1 to 10 µM
12,"C=CC(C)(C)c1cc(COc2ccc3c(c2)[C@]2(CC3)C[C@H]2C(=O)O)ccc1-c1cc(OC)ncc1F [Example 123, (1R,2R)-6′-(4-(5-Fluoro-2-methoxypyridin-4-yl)-3-(2-methylbut-3-en-2-yl)benzyloxy)-2′,3′-dihydrospiro[cyclopropane-1,1′-indene]-2-carboxylic acid]",1 to 10 µM
13,COc1ccc(F)c(-c2cc(COc3ccc4c(c3)[C@]3(CC4)C[C@@H]3C(=O)O)ccc2C(C)(C)C)c1 [Example 7],> 10 µM
14,CO[C@@H](c1cc(COc2ccc3c(c2)[C@]2(CCC3)C[C@H]2C(=O)O)ccc1-c1cncc(F)c1)C(C)(C)C (racemic) [Example 138],1 to 10 µM
15,"COc1ccc(F)c(-c2ccc(COc3ccc4c(c3)C3(CC4)CCC3C(=O)O)cc2C(OC)C(C)(C)C)c1 (single isomer, unassigned) [Example 147]",0.1 to 1 µM
16,COCC1(c2cc(COc3ccc4c(c3)[C@]3(CC4)C[C@H]3C(=O)O)ccc2-c2cc(OC)ncc2F)CCCC1 [Example 27],1 to 10 µM
17,"COc1ccc(F)c(-c2ccc(COc3ccc4c(c3)[C@]3(CCC4)CC[C@@H]3C(=O)O)cc2[C@@H](OC)C(C)(C)C)c1 (single isomer, unassigned) [Example 152]",1 to 10 µM
18,"COc1ccc(F)c(-c2ccc(COc3cc(F)c4c(c3F)[C@@]3(CC4)C[C@@H]3C(=O)O)cc2[C@@H](OC)C(C)(C)C)c1 (single isomer, unassigned) [Example 38]",1 to 10 µM
19,"COc1ccc(F)c(-c2ccc(COc3cc(F)c4c(c3F)[C@@]3(CC4)C[C@H]3C(=O)O)cc2[C@@H](OC)C(C)(C)C)c1 (single isomer, unassigned) [Example 40]",1 to 10 µM
20,"COc1ccc(COc2ccc3c(c2)[C@]2(CCC3)C[C@H]2C(=O)O)cc1[C@@H]1CCCC1(C)C (single isomer, unassigned) [Example 128]",1 to 10 µM
21,"COc1ccc(F)c(-c2ccc(COc3cc(F)c4c(c3F)[C@@]3(CC4)C[C@@H]3C(=O)O)cc2[C@H]2CCCC2(C)C)c1 (single isomer, unassigned) [Example 34]",1 to 10 µM
22,COc1ccc(F)c(-c2cc(COc3ccc4c(c3)[C@@]3(CC4)C[C@H]3C(=O)O)ccc2C(C)(C)C)c1 [Example 8],> 10 µM

row,SMILES,EC50
1,"COc1ccc(F)c(-c2ccc(COc3ccc4c(c3)[C@]3(CC4)CC[C@@H]3C(=O)O)cc2[C@@H](OC)C(C)(C)C)c1 (single isomer, unassigned) [Example 145]",1 to 10 µM
2,COc1ccc(F)c(-c2ccc(COc3ccc4c(c3)[C@@]3(CC4)C[C@H]3C(=O)O)cc2C2=CCCC2(C)C)c1 [Example 4],1 to 10 µM
3,CO[C@@H](c1cc(COc2ccc3c(c2)[C@]2(CCC3)C[C@H]2C(=O)O)ccc1-c1ccnc(C(F)(F)F)c1)C(C)(C)C (racemic) [Example 136],1 to 10 µM
4,"COc1ccc(F)c(-c2ccc(COc3ccc4c(c3)[C@@]3(CC4)[C@H](C(=O)O)[C@@H]3C)cc2[C@@H]2CCCC2(C)C)c1 (single isomer, unassigned) [Example 140]",0.1 to 1 µM
5,"O=C(O)[C@@H]1C[C@]12CCc1ccc(Oc3ccc(C(F)(F)F)c(Br)c3)cc12 [Example 124, (1R,2R)-6′-(3-Bromo-4-(trifluoromethyl)phenoxy)-2′,3′-dihydrospiro[cyclopropane-1,1′-indene]-2-carboxylic acid]",1 to 10 µM
6,"COc1ccc(F)c(-c2ccc(COc3cc(F)c4c(c3F)[C@]3(CC4)C[C@H]3C(=O)O)cc2[C@@H](OC)C(C)(C)C)c1 (single isomer, unassigned) [Example 37]",0.01 to 0.1 µM
7,"COc1cc(-c2ccc(COc3cc(F)c4c(c3F)[C@]3(CC4)C[C@H]3C(=O)O)cc2[C@@H]2CCCC2(C)C)c(F)cn1 (single isomer, unassigned) [Example 42]",1 to 10 µM
8,"CC1(C)CCC(C)(C)c2cc(COc3ccc4c(c3)[C@]3(CC4)C[C@H]3C(=O)O)ccc21 [Example 104, (1R,2R)-6′-((5,5,8,8-tetramethyl-5,6,7,8-tetrahydro-2-naphthalenyl)methoxy)-2′,3′-dihydrospiro[cyclopropane-1,1′-indene]-2-carboxylic acid]",> 10 µM
9,"COc1ccc(F)c(-c2ccc(COc3ccc4c(c3)C3(CCC4)CCC3C(=O)O)cc2C(OC)C(C)(C)C)c1 (single isomer, unassigned) [Example 157]",1 to 10 µM
10,C=CC(C)(C)[C@H]1c2cc(COc3ccc4c(c3)[C@]3(CC4)C[C@H]3C(=O)O)ccc2-c2c(F)ccc(OC)c21 (racemic) [Example 21],0.1 to 1 µM
11,"COc1ccc(F)c(-c2ccc(COc3cc(F)c4c(c3F)[C@]3(CC4)C[C@@H]3C(=O)O)cc2[C@H]2CCCC2(C)C)c1 (single isomer, unassigned) [Example 35]",> 10 µM
12,"COc1cc(-c2cc(F)c(COc3ccc4c(c3)[C@]3(CCC4)C[C@H]3C(=O)O)cc2[C@H]2CCCC2(C)C)c(F)cn1 (single isomer, unassigned) [Example 43]",0.01 to 0.1 µM
13,"C=CC(C)(C)[C@@H]1c2cc(COc3ccc4c(c3)[C@]3(CC4)C[C@H]3C(=O)O)ccc2-c2c(F)ccc(OC)c21 (single isomer, unassigned) [Example 23]",1 to 10 µM
14,COc1ccc(F)c(-c2ccc(COc3ccc4c(c3)[C@]3(CC4)C[C@@H]3C(=O)O)cc2C2=CCCC2(C)C)c1 [Example 3],> 10 µM
15,C=CC1(c2cc(COc3ccc4c(c3)[C@]3(CC4)C[C@H]3C(=O)O)ccc2-c2cc(OC)ncc2F)CCCC1 [Example 26],1 to 10 µM
16,"COc1cc(-c2ccc(COc3ccc4c(c3)[C@]3(CCC4)CC[C@@H]3C(=O)O)cc2[C@@H]2CCCC2(C)C)c(F)cn1 (single isomer, unassigned) [Example 153]",1 to 10 µM
17,COc1ccc(F)c(-c2ccc(COc3ccc4c(c3)[C@]3(CC4)C[C@H]3C(=O)O)cc2-c2nncn2C(C)C)c1 [Example 29],> 10 µM
18,"COc1ccc(F)c(-c2ccc(COc3ccc4c(c3)[C@]3(CC4)CC[C@@H]3C(=O)O)cc2[C@@H]2CCCC2(C)C)c1 (single isomer, unassigned) [Example 146]",0.1 to 1 µM
19,COc1ccc(F)c(-c2ccc(COc3ccc4c(c3)[C@@]3(CCC4)C[C@@H]3C(=O)O)cc2C2=CCCC2(C)C)c1 [Example 50],> 10 µM
20,COc1ccc(F)c(-c2cc(COc3ccc4c(c3)[C@]3(CC4)C[C@H]3C(=O)O)ccc2C(C)(C)C)c1 [Example 5],1 to 10 µM
21,COc1ccc(F)c(-c2cc(COc3ccc4c(c3)[C@@]3(CC4)C[C@@H]3C(=O)O)ccc2C(C)(C)C)c1 [Example 6],> 10 µM
